Test results published in patent publication US20140088114A1, “FUSED BICYCLIC KINASE INHIBITORS” (OSI Pharmaceuticals ,LLC, priority 2011, published 2014).
pIC50: −log10 of the molar value. Where two headings read alike, the source gives them in different places.

Assays:
Aurora B = biological target: T1, Aurora B (Homo sapiens, UniProt Q96GD4); assay: Aurora B cell mechanistic assay (HT-29), phospho-Histone H3 (Ser10) ELISA; assay type: cell-based; details: HT-29 cell line, inhibition of phospho-Histone H3 (Ser10), at least duplicate experiments (italicized if single); read-out: Aurora B mech IC50
T1 construct: HT-29 cells grown in complete growth media; endogenous in cells; host or cells: HT-29
Procedure: The cellular activity of the compounds of the present invention against Aurora B may be determined by the following procedure. HT-29 cells grown in complete growth media (McCoy's 5A, 10% FCS, 1% L-glutamine) were plated into wells of a 96 well tissue culture plate (Falcon 3072) at a cell density of 4×10^4 cells/0.09 ml media/well. Cells were subsequently incubated overnight in a 5% CO2 humidified 37° C. incubator. The following day 10 μl of a 10× stock of test compound serially diluted in media was added to the cells and incubated for 1 h at 37° C. at which time Calyculin A (Cell Signaling #9902) was added at a concentration of 100 nM and cells incubated for an additional 30 minutes in a 5% CO2 humidified 37° C. incubator. Media was then aspirated and cells lysed using a Triton based lysis buffer. Lysates were transferred to a pre-coated anti-Histone H3 antibody coated plate supplied by Cell Signaling in their PathScan phospho-Histone H3 (Ser10) ELISA kit (#7155). After an overnight incubation with lysate the ELISA was continued following the manufacturer's instructions. Signal was measured on a Wallac Victor plate reader at 450 nm. DMSO control treated cells served as 100% signal and an Aurora B kinase inhibitor served as 100% inhibition. The percent inhibition of phospho-Histone H3 (Ser10) was expressed as % control. IC50 values were calculated from the percent control data using a standard four-parameter model.
(§1) The IC50 values of exemplary compounds of the present invention determined in a Aurora B cell mechanistic assay using the HT-29 cell line according to the procedures described herein in at least duplicate experiments are abbreviated as follows and are shown in Table 4: A, IC50≦0.03 μM; B, 0.03 μM<IC50≦0.1 μM; C, 0.1 μM<IC50≦1 μM; D, 1 μM<IC50≦3 μM; ND, not determined. If only data from single experiments are available, the abbreviations are italicized. The Example # of Table 4 corresponds to the compound example number as illustrated in the Examples section.

RON = biological target: T2, RON (Homo sapiens, UniProt Q04912); assay: sfRON cell mechanistic assay (HeLa), phosphorylated RON; assay type: cell-based
T2 construct: expressed in transfected cells; host or cells: HeLa
T2 sequence (Q04912 913-1400 limits assumed): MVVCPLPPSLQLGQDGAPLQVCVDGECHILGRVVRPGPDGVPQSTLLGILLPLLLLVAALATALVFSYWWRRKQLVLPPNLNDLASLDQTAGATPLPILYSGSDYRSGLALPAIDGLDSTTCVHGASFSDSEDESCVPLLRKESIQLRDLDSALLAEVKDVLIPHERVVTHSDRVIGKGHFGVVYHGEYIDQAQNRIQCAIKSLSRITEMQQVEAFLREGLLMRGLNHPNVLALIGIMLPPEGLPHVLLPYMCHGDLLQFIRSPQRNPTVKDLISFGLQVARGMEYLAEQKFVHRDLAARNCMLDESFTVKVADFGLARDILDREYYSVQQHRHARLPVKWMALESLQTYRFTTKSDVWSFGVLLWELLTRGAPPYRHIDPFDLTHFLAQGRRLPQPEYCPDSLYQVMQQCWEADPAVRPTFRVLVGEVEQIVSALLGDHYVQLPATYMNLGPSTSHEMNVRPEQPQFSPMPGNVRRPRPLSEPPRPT
Procedure: The cellular activity of the compounds of the present invention against RON may be determined by the following procedure. HeLa cells were plated in Falcon 3072 96-well plates in growth media (DMEM, 10% FBS, 1% L-glutamine) at a density of 10000 cells/well and incubated at 37° C., 5% CO2 overnight. The following day, cells were transfected with 0.2 μg sfRON-pcDNA plasmid DNA with 0.5 μL Lipofectamine2000 per well in the presence of 50 μL OPTI-MEM, incubated at 37° C., 5% CO2 overnight. Costar 3915 96-well assay plates were coated with rabbit Anti-RON antibody at 2.0 μg/mL, sealed, and incubated overnight at 4° C. On the third day, coated plates were washed with PBS and blocked with 3% BSA. For the sfRON transfected cells, one-tenth volume of a 10× concentration of compounds was added to the wells in a 6-point dilution series. The dilution series was composed of an initial 1:5 dilution of a 10 mM DMSO stock solution of compound in DMSO, followed by a 1:10 dilution in growth media, for a final DMSO concentration on cells of 0.5%. Control wells were treated with 0.5% DMSO. The typical range of dilution was 10 μM to 3 nM. Once compound was added to the cells, plates were incubated for four hours at 37° C., 5% CO2. Plates were then washed in PBS, and lysed in triton-based lysis buffer. Lysates were transferred to the blocked capture plates. The phosphorylated RON levels were measured by incubating with a Goat polyclonal antibody against phosphorylated RON ([pYpY1238/1239]) followed by an anti-Goat antibody conjugated to HRP. Signal was measured on a Wallac Victor plate reader with luminance. The DMSO signal of the control wells was defined as 100% and the percent of inhibition of phosphorylated RON was expressed as percent of control. IC50 values were determined from the percent of control data using a standard four-parameter model.
as §1, with “sfRON” for “Aurora B”, “HeLa” for “HT-29”, “3:” for “4:”, “determined.” for “determined. If only data from single experiments are available, the abbreviations are italicized.”, “3” for “4”

[1] = Table 6: comparison X = C1-3haloalkyl vs. X = C1-3alkyl, read-out: sfRON cell mechanistic
[2] = sfRON transfected HeLa cells, four hours incubation, inhibition of phosphorylated RON, at least duplicate experiments, read-out: sfRON mech IC50

T1 sequence (Q96GD4 whole entry): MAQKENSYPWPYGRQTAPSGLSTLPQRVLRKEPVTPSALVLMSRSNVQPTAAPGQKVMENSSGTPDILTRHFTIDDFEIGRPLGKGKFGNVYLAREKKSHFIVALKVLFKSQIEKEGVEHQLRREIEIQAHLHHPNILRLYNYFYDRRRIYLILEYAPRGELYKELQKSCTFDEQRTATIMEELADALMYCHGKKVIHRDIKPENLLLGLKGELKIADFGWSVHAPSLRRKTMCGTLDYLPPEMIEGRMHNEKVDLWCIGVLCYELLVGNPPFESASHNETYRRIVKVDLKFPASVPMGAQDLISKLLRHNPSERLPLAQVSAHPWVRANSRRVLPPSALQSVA

| pIC50 (Aurora B) | pIC50 (RON; [1]) | pIC50 (RON; [2]) | SMILES |
| --- | --- | --- | --- |
| 6.00 to 7.00 | 7.00 to 7.52 | 7.00 to 7.52 | O[C@H]1CC[C@H](n2cc(-c3cnc4[nH]cc([C@@H](CF)c5c(OC(F)F)ccc(F)c5Cl)c4c3)cn2)CC1 [Example 4, trans-4-[4-(3-{(1R)-1-[2-Chloro-6-(difluoromethoxy)-3-fluorophenyl]-2-fluoroethyl}-1H-pyrrolo[2,3-b]pyridin-5-yl)-1H-pyrazol-1-yl]cyclohexanol] |
| 6.00 to 7.00 | 6.00 to 7.00 | 6.00 to 7.00 | Cn1cc(-c2cnc3[nH]cc(C(CF)c4c(Cl)ccc(F)c4Cl)c3c2)cn1 (stereo not drawn) [Example 1, 3-[1-(2,6-Dichloro-3-fluorophenyl)-2-fluoroethyl]-5-(1-methyl-1H-pyrazol-4-yl)-1H-pyrrolo[2,3-b]pyridine] |
| ≥ 7.52 | ≥ 7.52 | ≥ 7.52 | O[C@H]1CC[C@H](n2cc(-c3cnc4[nH]cc([C@H](CF)c5c(OC(F)F)ccc(F)c5Cl)c4c3)cn2)CC1 [Example 5, trans-4-[4-(3-{(1S)-1-[2-Chloro-6-(difluoromethoxy)-3-fluorophenyl]-2-fluoroethyl}-1H-pyrrolo[2,3-b]pyridin-5-yl)-1H-pyrazol-1-yl]cyclohexanol] |
| ≥ 7.52 | 7.00 to 7.52 | 7.00 to 7.52 | COc1ccc(F)c(Cl)c1[C@@H](CF)c1c[nH]c2ncc(-c3cnn([C@H]4CC[C@H](O)CC4)c3)cc12 [Example 3, trans-4-(4-{3-[(1S)-1-(2-chloro-3-fluoro-6-methoxyphenyl)-2-fluoroethyl]-1H-pyrrolo[2,3-b]pyridin-5-yl}-1H-pyrazol-1-yl)cyclohexanol] |
